# From ChEMBL document CHEMBL5143513, “Design, synthesis and biological evaluation of bisindole derivatives as anticancer agents against Tousled-like kinases” (Eur J Med Chem, 2022)
# The source made the active and inactive calls. The rule behind the calls is not given here.
# Assays:
# [1] = target: T1, Serine/threonine-protein kinase tousled-like 2 (Homo sapiens, UniProt Q86UE8); experiment: Inhibition of full length FLAG/HA/Strep-tagged TLK2 (unknown origin) transfected in HEK293T cells at 50 uM using GST-ASF1 as substrate preincubated for 15 mins followed by substrate addition and measured after 15 mins in presence of ATP by Western blot analysis; conditions: time 30.0 min
# Target sequence in this assay (Q86UE8 whole entry, looked up): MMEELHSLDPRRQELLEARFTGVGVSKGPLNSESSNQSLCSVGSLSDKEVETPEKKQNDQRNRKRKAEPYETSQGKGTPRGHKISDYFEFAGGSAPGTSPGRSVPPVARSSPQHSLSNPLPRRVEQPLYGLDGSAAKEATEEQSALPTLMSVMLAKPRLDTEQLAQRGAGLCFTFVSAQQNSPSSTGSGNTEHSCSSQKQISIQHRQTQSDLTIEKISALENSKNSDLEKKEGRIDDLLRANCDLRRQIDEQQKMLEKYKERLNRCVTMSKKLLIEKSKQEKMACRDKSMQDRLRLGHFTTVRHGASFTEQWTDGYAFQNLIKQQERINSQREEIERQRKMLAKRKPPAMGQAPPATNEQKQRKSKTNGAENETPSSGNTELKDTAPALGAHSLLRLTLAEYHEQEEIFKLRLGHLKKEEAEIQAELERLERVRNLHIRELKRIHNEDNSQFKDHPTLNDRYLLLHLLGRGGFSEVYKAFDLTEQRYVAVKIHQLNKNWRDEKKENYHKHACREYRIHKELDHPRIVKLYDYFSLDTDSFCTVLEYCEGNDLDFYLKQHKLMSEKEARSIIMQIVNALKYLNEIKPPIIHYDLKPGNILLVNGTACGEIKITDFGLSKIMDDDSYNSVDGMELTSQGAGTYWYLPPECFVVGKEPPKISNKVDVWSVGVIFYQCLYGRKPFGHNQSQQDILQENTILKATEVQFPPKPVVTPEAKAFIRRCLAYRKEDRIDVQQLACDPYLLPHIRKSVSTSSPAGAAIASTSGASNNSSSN
# [2] = target: Histone chaperone ASF1A (Homo sapiens) (UniProt Q9Y294); experiment: Inhibition of ASF1a phosphorylation at S166 residue in human MDA-MB-231 cells at 10 uM incubated for 4 hrs by Western blot analysis; assay type: cell-based
# Chain of Histone chaperone ASF1A (Homo sapiens) (Q9Y294 whole entry): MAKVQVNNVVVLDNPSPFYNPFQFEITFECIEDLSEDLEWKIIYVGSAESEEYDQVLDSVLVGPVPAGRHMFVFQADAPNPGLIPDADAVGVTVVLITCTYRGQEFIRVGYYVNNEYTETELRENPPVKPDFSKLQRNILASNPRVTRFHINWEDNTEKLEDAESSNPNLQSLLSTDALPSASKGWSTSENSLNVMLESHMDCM
# [3] = target: T1, Serine/threonine-protein kinase tousled-like 2; experiment: Inhibition of full length FLAG/HA/Strep-tagged TLK2 (unknown origin) transfected in HEK293T cells assessed as reduction in ASF1a phosphorylation at S166 residue at 5 uM by Western blot analysis; assay type: cell-based
# Target sequence in this assay (Q86UE8 whole entry, looked up): as the sequence (Q86UE8 whole entry, looked up) above
# MDA-MB-231 [4] = experiment: Cytotoxicity against human MDA-MB-231 cells assessed as reduction in cell viability at 0.5 uM measured after 72 hrs by MTT assay; assay type: functional
# MDA-MB-231 [5] = experiment: Effect on cell cycle progression in human MDA-MB-231 cells assessed as accumulation of cells at S phase at 2 uM by PI staining based flow cytometric analysis; assay type: functional
# MDA-MB-231 [6] = experiment: Induction of DNA damage in human MDA-MB-231 cells at 10 uM incubated for 4 hrs by gel electrophoresis method; assay type: functional, cell-based
# MDA-MB-231 [7] = experiment: Cytotoxicity against human MDA-MB-231 cells assessed as reduction in cell viability incubated for 72 hrs by MTT assay; assay type: functional, cell-based; conditions: MDA-MB-231, 72 h
# A549 = experiment: Cytotoxicity against human A549 cells assessed as reduction in cell viability incubated for 72 hrs by MTT assay; assay type: functional, cell-based; conditions: A549, 72 h
# HCT-116 = experiment: Cytotoxicity against human HCT-116 cells assessed as reduction in cell viability incubated for 72 hrs by MTT assay; assay type: functional, cell-based; conditions: HCT-116, 72 h
# [8] = Cytotoxicity against human IMR-90 cells assessed as reduction in cell viability incubated for 72 hrs by MTT assay; assay type: toxicity, cell-based
# [9] = Cytotoxicity against human MRC5 cells assessed as reduction in cell viability incubated for 72 hrs by MTT assay; assay type: toxicity, cell-based
# [10] = target: T1, Serine/threonine-protein kinase tousled-like 2; experiment: Inhibition of full length FLAG/HA/Strep-tagged TLK2 (unknown origin) transfected in HEK293T cells assessed as reduction in TLK mediated ASF1a phosphorylation at 50 uM by Western blot analysis; assay type: cell-based
# Target sequence in this assay (Q86UE8 whole entry, looked up): as above
# [11] = target: T1, Serine/threonine-protein kinase tousled-like 2; experiment: Inhibition of full length FLAG/HA/Strep-tagged TLK2 (unknown origin) in human U2OS cells assessed as ASF1 phosphorylation by measuring decrease in band shift at 16.7 uM measured after 4 hrs by Western blot analysis; assay type: cell-based
# Target sequence in this assay (Q86UE8 whole entry, looked up): as above
# [12] = target: T1, Serine/threonine-protein kinase tousled-like 2; experiment: Inhibition of full length FLAG/HA/Strep-tagged TLK2 (unknown origin) in human MDA-MB-231 cells assessed as reduction in ASF1 phosphorylation at 16.7 uM measured after 4 hrs by Western blot analysis; assay type: cell-based
# Target sequence in this assay (Q86UE8 whole entry, looked up): as above
# U2OS [13] = experiment: Effect on cell cycle progression in human U2OS cells assessed as accumulation of cells at S phase measured after 8 hrs by PI staining based flow cytometric analysis; assay type: functional; conditions: dose 2.5-20 µM, DDE = dose-dependent effect
# U2OS [14] = experiment: Inhibition of DNA replication in PCNA positive human U2OS cells assessed as reduction in EdU level at 2.5 to 20 uM incubated for 4 hrs by immunofluorescence staining based EdU incorporation assay; assay type: functional, cell-based; conditions: dose 2.5-20 µM
# U2OS [15] = experiment: Induction of DNA damage in human U2OS cells assessed as increase in CHK1 phosphorylation at S345 residue at 2.5 to 5 uM incubated for 4 hrs by Western blot analysis; assay type: functional, cell-based; conditions: dose 2.5-5 µM
# U2OS [16] = experiment: Induction of DNA damage in human U2OS cells assessed as increase in CHK2 phosphorylation at T68 residue at 5 to 10 uM incubated for 4 hrs by Western blot analysis; assay type: functional, cell-based; conditions: dose 5-10 µM
# U2OS [17] = experiment: Induction of DNA damage in human U2OS cells assessed as increase in KAP1 phosphorylation at S824 residue at 5 to 10 uM incubated for 4 hrs by Western blot analysis; assay type: functional, cell-based; conditions: dose 5-10 µM
# U2OS [18] = experiment: Induction of DNA damage in human U2OS cells assessed as increase in RPA2 phosphorylation at S4/S8 residue at 5 to 10 uM incubated for 4 hrs by Western blot analysis; assay type: functional, cell-based; conditions: dose 5-10 µM
# U2OS [19] = experiment: Induction of DNA damage in PCNA positive human U2OS cells assessed as increase in H2AX phosphorylation at S139 residue in S phase by measuring fluorescence intensity at 10 uM incubated for 4 hrs by immunofluorescence microscopy; assay type: functional, cell-based
# [20] = target: T1, Serine/threonine-protein kinase tousled-like 2; experiment: Binding affinity to full length FLAG/HA/Strep-tagged TLK2 (388 to 772 residues) (unknown origin) transfected in HEK293T cells by Alexa Fluor 647 staining based FRET assay; assay type: cell-based
# Target sequence in this assay (Q86UE8 whole entry): as the sequence (Q86UE8 whole entry, looked up) above
# MDA-MB-231 [21] = experiment: Antiproliferative activity against human MDA-MB-231 cells assessed as reduction in cell growth at 0.25 uM by trypan blue assay; assay type: functional, cell-based
# MDA-MB-231 [22] = experiment: Antiproliferative activity against human MDA-MB-231 cells assessed as reduction in cell growth at 1 uM by trypan blue assay; assay type: functional, cell-based
# MDA-MB-231 [23] = experiment: Antiproliferative activity against human MDA-MB-231 cells assessed as increase in cell death rate at 1 uM by trypan blue assay; assay type: functional, cell-based
# MDA-MB-231 [24] = experiment: Induction of cell cycle arrest in human MDA-MB-231 cells assessed as increase in cells at sub G1 phase at 2 uM measured after 72 hrs by PI staining based flow cytometric analysis (reference value: 0.8%); assay type: functional
# MDA-MB-231 [25] = experiment: Induction of cell cycle arrest in human MDA-MB-231 cells assessed as increase in cells at sub G1 phase at 4 uM measured after 72 hrs by PI staining based flow cytometric analysis (reference value: 0.8%); assay type: functional
# MDA-MB-231 [26] = experiment: Induction of apoptosis in human MDA-MB-231 cells assessed as increase in caspase-3 level at 4 uM incubated for 72 hrs by gel electrophoresis method; assay type: functional, cell-based
# MDA-MB-231 [27] = experiment: Induction of apoptosis in human MDA-MB-231 cells assessed as increase in caspase-9 level at 4 uM incubated for 72 hrs by gel electrophoresis method; assay type: functional, cell-based
# MDA-MB-231 [28] = experiment: Induction of apoptosis in human MDA-MB-231 cells assessed as decrease in Bcl-xL level at 4 uM incubated for 72 hrs by gel electrophoresis method; assay type: functional, cell-based
# MDA-MB-231 [29] = experiment: Induction of apoptosis in human MDA-MB-231 cells assessed as decrease in MCL-1 level at 4 uM incubated for 72 hrs by gel electrophoresis method; assay type: functional, cell-based
# [30] = target: T1, Serine/threonine-protein kinase tousled-like 2; experiment: Inhibition of full length FLAG/HA/Strep-tagged TLK2 (unknown origin) in human U2OS cells assessed as reduction in ASF1 phosphorylation at 16.7 uM measured after 4 hrs by Western blot analysis; assay type: cell-based
# Target sequence in this assay (Q86UE8 whole entry, looked up): as above
# U2OS [31] = experiment: Effect on cell cycle progression in human U2OS cells assessed as accumulation of cells at early stage of S phase measured after 8 hrs by PI staining based flow cytometric analysis; assay type: functional
# U2OS [32] = experiment: Inhibition of DNA replication in PCNA positive human U2OS cells assessed as reduction in EdU level at 50 uM incubated for 4 hrs by immunofluorescence staining based EdU incorporation assay; assay type: functional, cell-based
inhibition of ASF1a S166 phosphorylation (active/inactive call) [2],inhibition [3],Structure (SMILES),Activity (MDA-MB-231 [4]),IC50 (MDA-MB-231 [7]),IC50 (A549),IC50 (HCT-116),IC50 at 72 h [8],IC50 at 72 h [9],also measured
Active,Active,CN(C)CCCO/N=C1/C(=C2/C(=O)Nc3ccccc32)Nc2ccccc21,40%,440 nM,610 nM,710 nM,> 2000 nM,> 2000 nM,Activity (MDA-MB-231 [5]): Active; Activity (MDA-MB-231 [6]): Active
Active,Active,CN1CCC(O/N=C2/C(=C3/C(=O)Nc4ccccc43)Nc3ccccc32)CC1,40%,250 nM,190 nM,390 nM,> 2000 nM,> 2000 nM,IC50 [20]: 33.1 nM; Activity (MDA-MB-231 [5]): Active; Activity (MDA-MB-231 [6]): Active; Activity (MDA-MB-231 [21]): Active
Active,Active,CN1CCCC1CCO/N=C1/C(=C2/C(=O)Nc3ccccc32)Nc2ccccc21 (centres undefined),40%,250 nM,260 nM,370 nM,> 2000 nM,> 2000 nM,IC50 [20]: 18.6 nM; Activity (MDA-MB-231 [5]): Active; Activity (MDA-MB-231 [6]): Active; Activity (MDA-MB-231 [21]): Active; Activity (MDA-MB-231 [22]): Active; Activity (MDA-MB-231 [23]): Active; Activity (MDA-MB-231 [24]): 15.4%; Activity (MDA-MB-231 [25]): 25.6%; Activity (MDA-MB-231 [26]): Active; Activity (MDA-MB-231 [27]): Active; Activity (MDA-MB-231 [28]): Active; Activity (MDA-MB-231 [29]): Active
Active,Active,CN1CCCCC1CCO/N=C1/C(=C2/C(=O)Nc3ccc([N+](=O)[O-])cc32)Nc2ccccc21 (centres undefined),40%,,,,,,

# More lines, now with the values behind:
Structure (SMILES),inhibition of ASF1a S166 phosphorylation (active/inactive call) [2],inhibition [3],Activity (MDA-MB-231 [4]),IC50 (MDA-MB-231 [7]),IC50 (A549),IC50 (HCT-116),IC50 at 72 h [8],IC50 at 72 h [9],also measured
COc1ccc2c(c1)c(C1=C(c3c[nH]c4ccccc34)C(=O)NC1=O)cn2CCCN(C)C,,,,,,,,,inhibition [1]: Active
CN[C@@H]1C[C@H]2O[C@@](C)([C@@H]1OC)n1c3ccccc3c3c4c(c5c6ccccc6n2c5c31)C(=O)NC4,,,,,,,,,inhibition [1]: Active
CN1CCCCC1CCO/N=C1/C(=C2/C(=O)Nc3ccccc32)Nc2ccccc21 (centres undefined),,,<30%,1170 nM,1210 nM,1280 nM,> 2000 nM,> 2000 nM,inhibition [10]: Active; inhibition [11]: Active; inhibition [12]: Active; Activity (U2OS [13]): Dde; inhibition (U2OS [14]): Active; Activity (U2OS [15]): Active; Activity (U2OS [16]): Active; Activity (U2OS [17]): Active; Activity (U2OS [18]): Active; Activity (U2OS [19]): Active; IC50 [20]: 163 nM
CN1CCCCC1CCO/N=C1/C(=C2/C(=O)Nc3ccc(F)cc32)Nc2ccccc21 (centres undefined),Active,Active,40%,530 nM,600 nM,600 nM,> 2000 nM,> 2000 nM,
CN1CCCCC1CCO/N=C1/C(=C2/C(=O)Nc3cc(Cl)ccc32)Nc2ccccc21 (centres undefined),Active,,,,,,,,
NC(=O)NO,,,,,,,,,inhibition [30]: Active; Activity (U2OS [31]): Active; inhibition (U2OS [32]): Active
CN(C)CCCn1cc(C2=C(c3c[nH]c4ccccc34)C(=O)NC2=O)c2ccccc21,,,,,,,,,inhibition [1]: Active
CN1CCCCC1CCO/N=C1/C(=C2/C(=O)Nc3ccccc32)Nc2ccc(F)cc21 (centres undefined),,,<30%,,,,,,
CN1CCCCC1CCO/N=C1/C(=C2/C(=O)Nc3cc(F)ccc32)Nc2ccccc21 (centres undefined),,,<30%,,,,,,
